# Laboratory results from US5143911A, “Antibiotic C-3 di-hydroxyphenyl substituted cephalosporin compounds, compositions and method of use thereof” (Bristol-Myers Squibb Company, priority 1990, dated 1992).
# Legend:
# [1] = tested on: Penicillin (PC)sensitive S. (5 strains); assay: MIC, two-fold serial agar dilution, Mueller-Hinton agar (geometric mean, group Gp-Ia); type: cell-based, S. aureus; settings: Staphylococcus aureus
# Description: (§1) For a primary evaluation of some representative compounds of this invention, minimum inhibitory concentrations (MIC's) were determined against 32 strains of test organisms by two-fold serial agar dilution method in Mueller-Hinton agar.
# Gp-Ia: Penicillin (PC)sensitive S.
# [2] = tested on: CETresistant E. coli(3), and Kl. pneumoniae(2); assay: MIC, two-fold serial agar dilution, Mueller-Hinton agar (geometric mean, group Gn-Ib); type: cell-based; settings: Escherichia coli, read-out: Geometric Mean of MIC, Gn-Ib
# Description: as §1
# GnIb: CETresistant E. coli(3), and Kl. pneumoniae(2)
# Ps. aeruginosa (7) = assay: MIC, two-fold serial agar dilution, Mueller-Hinton agar (geometric mean, group Gn-III); type: cell-based; settings: Pseudomonas aeruginosa, 7 strains
# Description: as §1
# GnIII: Ps. aeruginosa (7)
# S. epidermidis 11-1168 = type: cell-based; settings: Staphylococcus epidermidis, 111168, pH 7.2, 32° C. 18 hr, 10^6 cells/ml
# P. aeruginosa A20599 = type: cell-based; settings: Pseudomonas aeruginosa, pH 7.2, 32° C. 18 hr, 10^6 cells/ml
# B. fragilis A 22695 = assay: In vitro activity against anaerobes (MIC), two-fold serial agar dilution, GAM agar; type: cell-based; settings: Bacteroides fragilis, A22695, Gn, Beta-Lactamase(+)
# B. fragilis A 22533 = assay: as above; type: cell-based; settings: Bacteroides fragilis, A22533, Gn, Beta-Lactamase(+)
# B. fragilis CUH-108 = assay: as above; type: cell-based; settings: Bacteroides fragilis, CUH108, Gn, Beta-Lactamase(+), Clindamycin-resistant
# Description: In vitro activity against anaerobic bacteria was determined on eight strains of B. fragilis by two-fold serial agar dilution method in GAM agar.
# C. perfringens A9635 = assay: microbe, parasite or virus in culture; type: cell-based; settings: Clostridium perfringens
# P. aeruginosa 9843A = assay: MIC against the infecting organism (Table 2); settings: Pseudomonas aeruginosa
# E. faecalis A9808 = settings: Enterococcus faecalis, A9808, 18 h, pH 7.2
# M. luteus 1001 = settings: Micrococcus luteus, 1001, 18 h, pH 7.2
# E. coli Juhl A15119 = settings: Escherichia coli, JUHLA15119, 18 h, pH 7.2
# M. morgani 1510 = settings: 18 h, pH 7.2
# P. rettgeri IPM-14 = settings: Providencia rettgeri, IPM14, 18 h, pH 7.2
# S. marcescens IPM-15 = settings: Serratia marcescens, IPM15, 18 h, pH 7.2
# S. marcescens IPM-16 = settings: Serratia marcescens, IPM16, 18 h, pH 7.2
# X. maltophilia No. 661 = settings: Stenotrophomonas maltophilia, NO.661, 18 h, pH 7.2
# C. terrigena IFO 12685 = settings: 18 h, pH 7.2
# S. aureus Smith = settings: Staphylococcus aureus, in Mus musculus, im, read-out: PD50
structure (smiles),measurement,setting,value
"CO/N=C(\C(=O)NC1C(=O)N2C(C(=O)O)=C(/C=C/COC(=O)c3ccc(O)c(O)c3)CS[C@H]12)c1csc(N)n1 (some centres unmarked) [Ia, 7-[(Z)-2-(2-Aminothiazol-4-yl)-2-methoxyiminoacetamido]-3-[(E)-3-(3,4-dihydroxybenzoyloxy)-1-propen-1-yl]-3-cephem-4-carboxylic acid]",MIC,[1],1.2 µg/mL
same,MIC,[2],0.029 µg/mL
same,MIC,Ps. aeruginosa (7),1.9 µg/mL
same,MIC,S. epidermidis 11-1168,3.1 µg/mL
same,MIC,P. aeruginosa A20599,3.1 µg/mL
same,MIC,B. fragilis A 22695,12.5 µg/mL
same,MIC,B. fragilis A 22533,> 50 µg/mL
same,MIC,B. fragilis CUH-108,25 µg/mL
same,MIC,C. perfringens A9635,0.2 µg/mL
same,MIC,P. aeruginosa 9843A,3.1 µg/mL
same,MIC,E. faecalis A9808,100 µg/mL
same,MIC,M. luteus 1001,0.1 µg/mL
same,MIC,E. coli Juhl A15119,0.05 µg/mL
same,MIC,M. morgani 1510,3.1 µg/mL
same,MIC,P. rettgeri IPM-14,0.05 µg/mL
same,MIC,S. marcescens IPM-15,> 100 µg/mL
same,MIC,S. marcescens IPM-16,> 100 µg/mL
same,MIC,X. maltophilia No. 661,12.5 µg/mL
same,MIC,C. terrigena IFO 12685,0.8 µg/mL
same,ED50,S. aureus Smith,0.4 mg/kg
